Source: the supplement of paper PMC10307832

Columns and labels:
Experiment in all cases: relative viability (nuclei count vs DMSO), 5 days (fraction); higher = more cells survive
A-427 = tested on: A-427
Procedure, shortened: (§1)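 Relative viability equals treated-well nuclei counts divided by vehicle-well nuclei counts. Counts came from 4× images of lung cancer cell lines grown in 1536-well plates for 5 days after pin-tool dosing on the day after seeding. Dosing used one drug alone or a fixed anchor-drug dose plus five library-drug doses (not always all listed) in √10 steps, and values are medians of duplicate plates.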

ABC-1 = tested on: ABC-1
Procedure, shortened: as §1

EMC-BAC-2 = tested on: EMC-BAC-2
Procedure, shortened: as §1

HARA = tested on: HARA
Procedure, shortened: as §1

HOP-62 = tested on: HOP-62
Procedure, shortened: as §1

LK-2 = tested on: LK-2
Procedure, shortened: as §1

LXF-289 = tested on: LXF-289
Procedure, shortened: as §1

NCI-H1792 = tested on: NCI-H1792
Procedure, shortened: as §1

NCI-H1944 = tested on: NCI-H1944
Procedure, shortened: as §1

NCI-H1993 = tested on: NCI-H1993
Procedure, shortened: as §1

NCI-H2009 = tested on: NCI-H2009
Procedure, shortened: as §1

NCI-H2170 = tested on: NCI-H2170
Procedure, shortened: as §1

NCI-H2228 = tested on: NCI-H2228
Procedure, shortened: as §1

NCI-H3122 = tested on: NCI-H3122
Procedure, shortened: as §1

NCI-H322M = tested on: NCI-H322M
Procedure, shortened: as §1

NCI-H522 = tested on: NCI-H522
Procedure, shortened: as §1

NCI-H596 = tested on: NCI-H596
Procedure, shortened: as §1

NCI-H727 = tested on: NCI-H727
Procedure, shortened: as §1

PC-3 [JPC-3] = tested on: PC-3 [JPC-3]
Procedure, shortened: as §1

SK-MES-1 = tested on: SK-MES-1
Procedure, shortened: as §1

SW 1573 = tested on: SW 1573
Procedure, shortened: as §1

SW 900 = tested on: SW 900
Procedure, shortened: as §1

Cc1sc2c(c1C)C(c1ccc(Cl)cc1)=N[C@@H](CC(=O)OC(C)(C)C)c1nnc(C)n1-2 [JQ1] + COc1cccc2cc(-c3nc([C@H]4CC[C@H](C(=O)O)CC4)n4ncnc(N)c34)[nH]c12 [OSI-027] (partner 0.5 µM)
relative viability (A-427; first compound 0.04 µM): 0.468
relative viability (A-427; first compound 0.1265 µM): 0.45
relative viability (A-427; first compound 0.4 µM): 0.458
relative viability (A-427; first compound 1.265 µM): 0.3
relative viability (A-427; first compound 4 µM): 0.293
relative viability (ABC-1; first compound 0.04 µM): 0.452
relative viability (ABC-1; first compound 0.1265 µM): 0.352
relative viability (ABC-1; first compound 0.4 µM): 0.322
relative viability (ABC-1; first compound 1.265 µM): 0.187
relative viability (ABC-1; first compound 4 µM): 0.212
relative viability (EMC-BAC-2; first compound 0.04 µM): 0.405
relative viability (EMC-BAC-2; first compound 0.1265 µM): 0.286
relative viability (EMC-BAC-2; first compound 0.4 µM): 0.301
relative viability (EMC-BAC-2; first compound 1.265 µM): 0.189
relative viability (EMC-BAC-2; first compound 4 µM): 0.224
relative viability (HARA; first compound 0.04 µM): 0.418
relative viability (HARA; first compound 0.1265 µM): 0.341
relative viability (HARA; first compound 0.4 µM): 0.282
relative viability (HARA; first compound 1.265 µM): 0.11
relative viability (HARA; first compound 4 µM): 0.141
relative viability (HOP-62; first compound 0.04 µM): 0.826
relative viability (HOP-62; first compound 0.1265 µM): 0.613
relative viability (HOP-62; first compound 0.4 µM): 0.45
relative viability (HOP-62; first compound 1.265 µM): 0.189
relative viability (HOP-62; first compound 4 µM): 0.149
relative viability (LK-2; first compound 0.04 µM): 0.204
relative viability (LK-2; first compound 0.1265 µM): 0.21
relative viability (LK-2; first compound 0.4 µM): 0.188
relative viability (LK-2; first compound 1.265 µM): 0.122
relative viability (LK-2; first compound 4 µM): 0.143
relative viability (LXF-289; first compound 0.04 µM): 0.803
relative viability (LXF-289; first compound 0.1265 µM): 0.695
relative viability (LXF-289; first compound 0.4 µM): 0.614
relative viability (LXF-289; first compound 1.265 µM): 0.297
relative viability (LXF-289; first compound 4 µM): 0.173
relative viability (NCI-H1792; first compound 0.04 µM): 0.666
relative viability (NCI-H1792; first compound 0.4 µM): 0.82
relative viability (NCI-H1792; first compound 1.265 µM): 0.497
relative viability (NCI-H1792; first compound 4 µM): 0.57
relative viability (NCI-H1944; first compound 0.04 µM): 0.39
relative viability (NCI-H1944; first compound 0.1265 µM): 0.364
relative viability (NCI-H1944; first compound 0.4 µM): 0.375
relative viability (NCI-H1944; first compound 1.265 µM): 0.227
relative viability (NCI-H1944; first compound 4 µM): 0.25
relative viability (NCI-H1993; first compound 0.04 µM): 0.511
relative viability (NCI-H1993; first compound 0.1265 µM): 0.608
relative viability (NCI-H1993; first compound 0.4 µM): 0.623
relative viability (NCI-H1993; first compound 1.265 µM): 0.537
relative viability (NCI-H1993; first compound 4 µM): 0.538
relative viability (NCI-H2009; first compound 0.04 µM): 0.558
relative viability (NCI-H2009; first compound 0.1265 µM): 0.471
relative viability (NCI-H2009; first compound 0.4 µM): 0.318
relative viability (NCI-H2009; first compound 1.265 µM): 0.185
relative viability (NCI-H2009; first compound 4 µM): 0.179
relative viability (NCI-H2170; first compound 0.04 µM): 0.683
relative viability (NCI-H2170; first compound 0.1265 µM): 0.623
relative viability (NCI-H2170; first compound 0.4 µM): 0.688
relative viability (NCI-H2170; first compound 1.265 µM): 0.422
relative viability (NCI-H2170; first compound 4 µM): 0.362
relative viability (NCI-H2228; first compound 0.04 µM): 0.731
relative viability (NCI-H2228; first compound 0.1265 µM): 0.657
relative viability (NCI-H2228; first compound 0.4 µM): 0.466
relative viability (NCI-H2228; first compound 1.265 µM): 0.257
relative viability (NCI-H2228; first compound 4 µM): 0.296
relative viability (NCI-H3122; first compound 0.04 µM): 0.898
relative viability (NCI-H3122; first compound 0.4 µM): 0.784
relative viability (NCI-H3122; first compound 1.265 µM): 0.392
relative viability (NCI-H3122; first compound 4 µM): 0.264
relative viability (NCI-H322M; first compound 0.04 µM): 0.518
relative viability (NCI-H322M; first compound 0.1265 µM): 0.589
relative viability (NCI-H322M; first compound 0.4 µM): 0.477
relative viability (NCI-H322M; first compound 1.265 µM): 0.321
relative viability (NCI-H322M; first compound 4 µM): 0.339
relative viability (NCI-H522; first compound 0.04 µM): 0.657
relative viability (NCI-H522; first compound 0.1265 µM): 0.556
relative viability (NCI-H522; first compound 0.4 µM): 0.617
relative viability (NCI-H522; first compound 4 µM): 0.468
relative viability (NCI-H596; first compound 0.04 µM): 0.809
relative viability (NCI-H596; first compound 0.1265 µM): 0.892
relative viability (NCI-H596; first compound 0.4 µM): 0.539
relative viability (NCI-H596; first compound 1.265 µM): 0.334
relative viability (NCI-H596; first compound 4 µM): 0.283
relative viability (NCI-H727; first compound 0.04 µM): 0.576
relative viability (NCI-H727; first compound 0.1265 µM): 0.582
relative viability (NCI-H727; first compound 0.4 µM): 0.414
relative viability (NCI-H727; first compound 1.265 µM): 0.375
relative viability (NCI-H727; first compound 4 µM): 0.406
relative viability (PC-3 [JPC-3]; first compound 0.04 µM): 0.771
relative viability (PC-3 [JPC-3]; first compound 0.1265 µM): 0.823
relative viability (PC-3 [JPC-3]; first compound 0.4 µM): 0.739
relative viability (PC-3 [JPC-3]; first compound 1.265 µM): 0.653
relative viability (PC-3 [JPC-3]; first compound 4 µM): 0.445
relative viability (SK-MES-1; first compound 0.04 µM): 0.614
relative viability (SK-MES-1; first compound 0.1265 µM): 0.497
relative viability (SK-MES-1; first compound 0.4 µM): 0.379
relative viability (SK-MES-1; first compound 1.265 µM): 0.157
relative viability (SK-MES-1; first compound 4 µM): 0.158
relative viability (SW 1573; first compound 0.04 µM): 0.511
relative viability (SW 1573; first compound 0.1265 µM): 0.475
relative viability (SW 1573; first compound 0.4 µM): 0.371
relative viability (SW 1573; first compound 1.265 µM): 0.229
relative viability (SW 1573; first compound 4 µM): 0.233
relative viability (SW 900; first compound 0.04 µM): 0.572
relative viability (SW 900; first compound 0.1265 µM): 0.627
relative viability (SW 900; first compound 0.4 µM): 0.352
relative viability (SW 900; first compound 1.265 µM): 0.165
relative viability (SW 900; first compound 4 µM): 0.166
